Source: patent US12161723B2, “Water-based cannabinoid and opioid compositions” (DAY THREE LABS MAN[…]., priority 2014, dated 2024)

T1: ovalbumin (hen) (Gallus gallus, UniProt P01012)
T1 sequence (P01012 1-386): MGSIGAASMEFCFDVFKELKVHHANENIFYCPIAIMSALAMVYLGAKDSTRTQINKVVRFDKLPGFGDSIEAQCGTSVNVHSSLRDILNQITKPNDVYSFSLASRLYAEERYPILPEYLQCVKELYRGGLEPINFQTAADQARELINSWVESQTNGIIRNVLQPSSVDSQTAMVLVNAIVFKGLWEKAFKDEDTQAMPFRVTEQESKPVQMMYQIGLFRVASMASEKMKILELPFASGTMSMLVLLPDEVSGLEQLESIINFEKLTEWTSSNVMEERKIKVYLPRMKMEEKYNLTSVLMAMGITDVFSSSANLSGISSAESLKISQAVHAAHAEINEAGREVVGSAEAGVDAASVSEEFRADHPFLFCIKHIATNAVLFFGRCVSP

B1: ovalbumin: ovalbumin (hen) (protein, UniProt P01012 2-386, looked up)
Ovalbumin: GSIGAASMEFCFDVFKELKVHHANENIFYCPIAIMSALAMVYLGAKDSTRTQINKVVRFDKLPGFGDSIEAQCGTSVNVHSSLRDILNQITKPNDVYSFSLASRLYAEERYPILPEYLQCVKELYRGGLEPINFQTAADQARELINSWVESQTNGIIRNVLQPSSVDSQTAMVLVNAIVFKGLWEKAFKDEDTQAMPFRVTEQESKPVQMMYQIGLFRVASMASEKMKILELPFASGTMSMLVLLPDEVSGLEQLESIINFEKLTEWTSSNVMEERKIKVYLPRMKMEEKYNLTSVLMAMGITDVFSSSANLSGISSAESLKISQAVHAAHAEINEAGREVVGSAEAGVDAASVSEEFRADHPFLFCIKHIATNAVLFFGRCVSP

Key:
[1] = target: T2, BSA (Bos taurus, UniProt P02769); test: Cannabis smoke/vapor passed through BSA/water/ethanol solution, cannabinoid profile (Example 1d); format: binding, bovine; conditions: 33% ethanol, 48 hours incubation, washed
T2 sequence (P02769 25-607): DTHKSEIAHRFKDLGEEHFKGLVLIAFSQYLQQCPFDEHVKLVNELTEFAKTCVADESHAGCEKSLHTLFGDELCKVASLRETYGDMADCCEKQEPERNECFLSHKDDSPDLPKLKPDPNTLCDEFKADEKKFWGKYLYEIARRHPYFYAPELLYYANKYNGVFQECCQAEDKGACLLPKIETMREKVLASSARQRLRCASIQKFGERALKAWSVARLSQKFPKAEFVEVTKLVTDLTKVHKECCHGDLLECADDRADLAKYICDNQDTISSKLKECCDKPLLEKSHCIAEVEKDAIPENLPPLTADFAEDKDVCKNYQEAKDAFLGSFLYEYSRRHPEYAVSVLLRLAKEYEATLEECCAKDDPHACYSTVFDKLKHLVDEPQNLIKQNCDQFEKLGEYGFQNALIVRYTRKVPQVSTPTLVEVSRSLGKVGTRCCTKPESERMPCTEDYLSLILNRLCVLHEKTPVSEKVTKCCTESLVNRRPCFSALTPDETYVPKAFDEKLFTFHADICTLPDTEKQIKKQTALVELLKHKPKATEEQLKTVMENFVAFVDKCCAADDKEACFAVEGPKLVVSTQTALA
Protocol: (§1) To show which cannabinoid compounds are solubilized in processes using BSA versus organic solvents, cannabis from two different batches was smoked and or vaporized. Vapor was formed using a “volcano” vaporizer at a temperature of 210° C. The smoke/vapor was passed through either a BSA/water/ethanol solution described in example 1b, comprising 33% by volume ethanol or through a pure ethanol (99% ethanol) solution. Solutions were stirred using a magnetic stirrer and were incubated for 48 hours, during which time, most of the ethanol evaporated. One of the batches of cannabis was high in THC, and the other batch of cannabis was high in both THC and CBD.
The BSA/water/ethanol solution was washed after smoke or vapor was combined with it, and the amount of cannabinoids present was analyzed. The results of the comparison of relative concentration of cannabinoids (relative to total cannabinoid content) as expressed in percent (weight/weight), for a strain of cannabis high in THC are shown in the table below.

[2] = Cannabis smoke/vapor passed through pure ethanol, cannabinoid profile (Example 1d); format: physicochemical; conditions: for relative concentration of cannabinoids (relative to total cannabinoid content), Vapor passed through ethanol: vapor at 210° C.
Protocol: as §1

[3] = tested on: bovine γ-globulin; test: Cannabis vapor streamed through protein solution, cannabinoids adsorbed (Example 1f); format: binding; conditions: vapor of cannabis high in CBD; 1 mg/ml protein, ethanol:water 1:2, 30° C., 24 hours
Protocol: (§2) The protein solutions were formed using ethanol and water in a 1:2 ratio. The solutions were incubated at 30° C. for 24 hours.

[4] = target: T1, ovalbumin (hen); test: as above; format: binding; conditions: vapor of cannabis high in CBD; for percentage of each cannabinoid relative to total cannabinoids adsorbed to protein, Ovalbumin: 1 mg/ml protein, ethanol:water 1:2, 30° C., 24 hours
Protocol: as §2

[5] = target: T3, rice recombinant human serum albumin (HSA) (Homo sapiens, UniProt P02768); test: as above; format: binding; conditions: vapor of cannabis high in CBD; 1 mg/ml protein, ethanol:water 1:2, 30° C., 24 hours
T3 construct: host or cells: rice (recombinant expression host)
T3 sequence (P02768 25-609): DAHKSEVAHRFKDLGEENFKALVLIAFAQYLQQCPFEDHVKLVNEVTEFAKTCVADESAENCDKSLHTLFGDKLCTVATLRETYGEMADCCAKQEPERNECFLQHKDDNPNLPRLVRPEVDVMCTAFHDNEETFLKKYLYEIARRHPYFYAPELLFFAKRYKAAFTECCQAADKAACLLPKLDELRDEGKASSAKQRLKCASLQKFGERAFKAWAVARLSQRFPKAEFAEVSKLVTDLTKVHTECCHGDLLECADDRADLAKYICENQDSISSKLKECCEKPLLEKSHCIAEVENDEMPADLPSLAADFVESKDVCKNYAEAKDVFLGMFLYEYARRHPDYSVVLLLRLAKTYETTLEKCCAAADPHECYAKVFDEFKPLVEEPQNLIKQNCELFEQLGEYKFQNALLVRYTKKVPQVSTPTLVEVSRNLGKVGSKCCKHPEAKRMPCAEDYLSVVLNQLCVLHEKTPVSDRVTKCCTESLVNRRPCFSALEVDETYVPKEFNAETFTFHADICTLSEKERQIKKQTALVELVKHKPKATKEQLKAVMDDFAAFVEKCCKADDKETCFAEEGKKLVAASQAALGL
Protocol: as §2

[6] = Cannabinoid content of cannabis extract (Example 2a); format: physicochemical; conditions: methanol/chloroform 9:1 cannabis extract
Protocol: (§3) Cannabis extract was prepared as follows: In short, cannabis plant matter is dried, ground and homogenized to form ground cannabis. The ground cannabis is extracted with methanol/chloroform (volume/volume ratio of 9:1). Sonication and filtration is then performed. Identity of cannabinoids is determined by HPLC by evaporation, dissolution in an appropriate solvent.
(§4) Drying of the cannabis plant matter occurs under high vacuum at about 37±2° C. for about 24 hours and then ground to form a fine powder. 200 mg of ground powder is combined with 10 ml of methanol/chloroform, and sonicated in an ice bath for 30 minutes at maximum power. The supernatant is then filtered through a 0.2 micron filter.
(§5) A sample of the cannabis extract was analyzed for content of cannabinoids. The cannabis extract was then combined with albumin solution having 20% ethanol at 10 mg/ml (BSA) and incubated for 2 hours at room temperature.

[7] = target: T2, BSA; test: Cannabis extract combined with albumin solution, cannabinoids adsorbed to BSA (Example 2a); format: binding, bovine; conditions: albumin solution 10 mg/ml (BSA) with 20% ethanol, 2 hours at room temperature
Protocol: as §3, §4, §5

[8] = target: albumin (BSA) (Bos taurus, UniProt P02769); test: Ethanolic cannabinoid solution mixed with aqueous albumin, protein-bound cannabinoid quantified (Example 2b); format: binding, bovine; set-up: protein-bound cannabinoid quantified, Vapor: unit not given beside the values; conditions: 100 microliters ethanolic solution + 500 microliters 5 mg/ml BSA, 30° C., 12 hours, non-adsorbed cannabinoids separated
Chain of albumin (BSA) (P02769 25-607): as the sequence (P02769 25-607) above
Protocol: 100 microliters of ethanolic cannabinoid solution from cannabis vapor and cannabis smoke were each mixed with 500 microliters of aqueous albumin solution that had been prepared at a concentration of 5 mg albumin (BSA)/ml. The aqueous albumin solution combined with the ethanolic cannabinoid solution was incubated at 30° C. for 12 hours in open tubes. After 12 hours, the tubes were mixed and centrifuged, and non-adsorbed cannabinoids were separated from the solution. Concentrated protein-bound cannabinoid was dried and quantified as described below.

[9] = 3 g high THC strain; 200 ml ethanol concentrated to about 3 ml
[10] = strain of cannabis high in CBD and THC

Molecule | relative concentration of cannabinoids (relative to total cannabinoid content), Smoke passed through BSA/water/ethanol [1, 10] | relative concentration of cannabinoids (relative to total cannabinoid content), Vapor passed through BSA/water/ethanol [1, 10] | relative concentration of cannabinoids (relative to total cannabinoid content), Smoke passed through BSA/water/ethanol ([1]; strain of cannabis high in THC) | relative concentration of cannabinoids (relative to total cannabinoid content), Smoke passed through ethanol [2, 10] | relative concentration of cannabinoids (relative to total cannabinoid content), Vapor passed through ethanol [2, 10] | relative concentration of cannabinoids (relative to total cannabinoid content), Smoke passed through ethanol ([2]; strain of cannabis high in THC) | relative concentration of cannabinoids (relative to total cannabinoid content), Vapor passed through ethanol ([2]; strain of cannabis high in THC) | percentage of each cannabinoid relative to total cannabinoids adsorbed to protein, Bovine γ-globulin [3] | percentage of each cannabinoid relative to total cannabinoids adsorbed to protein, Ovalbumin [4] | percentage of each cannabinoid relative to total cannabinoids adsorbed to protein, Rice recombinant HSA [5] | percentage of each cannabinoid relative to total cannabinoids, Extract [6] | percentage of each cannabinoid relative to total cannabinoids adsorbed to protein, Adsorbed to BSA after extract combined with BSA solution [7] | protein-bound cannabinoid quantified, Smoke [8] | protein-bound cannabinoid quantified, Vapor [8] | amount of cannabinoids dissolved in ethanol, Smoke [9] | amount of cannabinoids dissolved in ethanol, Vapor [9] | cannabinoid adsorbed per mg of protein ([4]; 1 mg/ml ovalbumin)
C=C(C)[C@@H]1CCC(C)=C[C@H]1c1c(O)cc(CCCCC)c(C(=O)O)c1O [CBDA, cannabidiolic acid] | 39.8 percent (weight/weight) | 23.6 percent (weight/weight) | 0.0 percent (weight/weight) | 2.3 percent (weight/weight) | 1.6 percent (weight/weight) | 0.9 percent (weight/weight) | 0.4 percent (weight/weight) | 0 percentage | 2.4 percentage | 46 percentage | 1 percentage | 0 percentage | 0 | 0 | 0 micrograms/ml | 3.1218 micrograms/ml | –
CCCCCc1cc(O)c2c(c1)OC(C)(C)[C@@H]1CC=C(C)C[C@@H]21 [DELTA-8-THC] | 0.0 percent (weight/weight) | 0.0 percent (weight/weight) | 0.0 percent (weight/weight) | 0.0 percent (weight/weight) | 0.0 percent (weight/weight) | 0.0 percent (weight/weight) | 0.0 percent (weight/weight) | – | – | – | – | – | 0 | 4.6 | 0 micrograms/ml | 0 micrograms/ml | –
CCCCCc1cc(O)c(C/C=C(\C)CCC=C(C)C)c(O)c1C(=O)O [CBGA, cannabigerolic acid] | 0.0 percent (weight/weight) | 0.0 percent (weight/weight) | 0.0 percent (weight/weight) | 0.4 percent (weight/weight) | 0.0 percent (weight/weight) | 0.6 percent (weight/weight) | 0.1 percent (weight/weight) | 0 percentage | 0 percentage | 0 percentage | 3 percentage | 2 percentage | 0.58 | 1.43 | 23.088 micrograms/ml | 28.7668 micrograms/ml | –
CCCc1cc(O)c2c(c1)OC(C)(C)[C@@H]1CCC(C)=C[C@@H]21 [THCV, tetrahydrocannabivarin] | 0.0 percent (weight/weight) | 0.0 percent (weight/weight) | 0.0 percent (weight/weight) | 2.4 percent (weight/weight) | 0.8 percent (weight/weight) | 2.4 percent (weight/weight) | 0.7 percent (weight/weight) | – | – | – | – | – | – | – | – | – | –
C=C(C)[C@@H]1CCC(C)=C[C@H]1c1c(O)cc(CCCCC)cc1O [CBD, cannabidiol, reference compound] | 22.3 percent (weight/weight) | 33.4 percent (weight/weight) | 0.0 percent (weight/weight) | 44.7 percent (weight/weight) | 51.1 percent (weight/weight) | 1.9 percent (weight/weight) | 0.3 percent (weight/weight) | 0 percentage | 55.9 percentage | 33 percentage | 0 percentage | 0 percentage | 0 | 0 | 0 micrograms/ml | 17.2726 micrograms/ml | –
B1 | – | – | – | – | – | – | – | – | – | – | – | – | – | – | – | – | about 4 micrograms of cannabinoid per mg of protein
